# Data as given in publication PMC9684079, “Pharmacological targeting of glutamatergic neurons within the brainstem for weight reduction” (Nature Metabolism, 2022).
# Columns and labels:
# Assay in all cases: biochemical
# Design in all cases: Cerep/Eurofins selectivity panel, enzymes, per cent inhibition at 10 uM
# Conditions in all cases: read-out: % Inhibition
# Carbonic Anhydrase II = target: T1, Carbonic Anhydrase II (Homo sapiens, UniProt P00918)
# T1 construct: gene CA2
# Phosphodiesterase PDE5 = target: T2, Phosphodiesterase PDE5 (Homo sapiens, UniProt O76074)
# T2 construct: gene PDE5A
# [1] = target: T3, Phosphodiesterase PDE10A2 (Homo sapiens, UniProt Q9Y233)
# T3 construct: gene PDE10A; isoform PDE10A2
# Peptidase, Factor Xa = target: T4, Peptidase, Factor Xa (Homo sapiens, UniProt P00742)
# T4 construct: gene F10; factor Xa
# [2] = target: Protein Tyrosine Kinase, FES (Homo sapiens, UniProt P07332)
# [3] = target: T5, Peptidase, Matrix metalloprotease-13 (MMP-13) (Homo sapiens, UniProt P45452)
# T5 construct: gene MMP13
# Cyclooxygenase COX-1 = target: T6, Cyclooxygenase COX-1 (Homo sapiens, UniProt P23219)
# T6 construct: gene PTGS1
# [4] = target: T7, Peptidase, Matrix metalloprotease-7 (MMP-7) (Homo sapiens, UniProt P09237)
# T7 construct: gene MMP7
# [5] = target: T8, Protein Tyrosine Kinase, EGF receptor (Homo sapiens, UniProt P00533)
# T8 construct: gene EGFR
# 5-Lipoxygenase = target: T9, 5-Lipoxygenase (Homo sapiens, UniProt P09917)
# T9 construct: gene ALOX5
# Monoamine Oxidase MAO-A = target: T10, Monoamine Oxidase MAO-A (Homo sapiens, UniProt P21397)
# T10 construct: gene MAOA
# Monoamine Oxidase MAO-B = target: T11, Monoamine Oxidase MAO-B (Homo sapiens, UniProt P27338)
# T11 construct: gene MAOB
# [6] = target: Protein Serine/Threonine Kinase, MAPK14 (p38a) (Homo sapiens, UniProt Q16539)
# [7] = target: Protein Serine/Threonine Phosphatase, PPP3CA (Calccineurin, PP2B) (Homo sapiens, UniProt Q08209)
# [8] = target: Protein Tyrosine Kinase, SRC (Homo sapiens, UniProt P12931)
# [9] = target: T12, Peptidase, Matrix metalloprotease-1 (MMP-1) (Homo sapiens, UniProt P03956)
# T12 construct: gene MMP1
# HMG-CoA Reductase = target: T13, HMG-CoA Reductase (Homo sapiens, UniProt P04035)
# T13 construct: gene HMGCR
# Cyclooxygenase COX-2 = target: T14, Cyclooxygenase COX-2 (Homo sapiens, UniProt P35354)
# T14 construct: gene PTGS2
# Peptidase, Renin = target: T15, Peptidase, Renin (Homo sapiens, UniProt P00797)
# T15 construct: gene REN
# [10] = target: Protein Serine/Threonine Kinase, MAPK1 (ERK2) (Homo sapiens, UniProt P28482)
# [11] = target: Protein Serine/Threonine Kinase, MAPK3 (ERK1) (Homo sapiens, UniProt P27361)
# [12] = target: Protein Serine/Threonine Kinase, MAP2K1 (MEK1) (Homo sapiens, UniProt Q02750)
# [13] = target: Protein Serine/Threonine Kinase, GSK3B (Homo sapiens, UniProt P49841)
# [14] = target: T16, Protein Tyrosine Kinase, Insulin receptor (Homo sapiens, UniProt P06213)
# T16 construct: gene INSR
# [15] = target: Protein Tyrosine Kinase, ERBB2 (HER2) (Homo sapiens, UniProt P04626)
# Chain of Protein Serine/Threonine Kinase, MAPK14 (p38a) (Q16539 whole entry): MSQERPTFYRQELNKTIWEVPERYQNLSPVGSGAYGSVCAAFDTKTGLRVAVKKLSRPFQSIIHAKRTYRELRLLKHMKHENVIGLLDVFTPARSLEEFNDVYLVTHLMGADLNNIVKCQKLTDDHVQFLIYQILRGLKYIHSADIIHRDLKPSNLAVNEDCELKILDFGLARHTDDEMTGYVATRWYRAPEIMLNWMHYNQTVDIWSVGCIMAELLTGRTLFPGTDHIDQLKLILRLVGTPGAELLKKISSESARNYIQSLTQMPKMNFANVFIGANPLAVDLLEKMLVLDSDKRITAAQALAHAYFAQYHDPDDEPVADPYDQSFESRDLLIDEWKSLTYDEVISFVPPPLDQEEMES
# Chain of Protein Tyrosine Kinase, SRC (P12931 whole entry): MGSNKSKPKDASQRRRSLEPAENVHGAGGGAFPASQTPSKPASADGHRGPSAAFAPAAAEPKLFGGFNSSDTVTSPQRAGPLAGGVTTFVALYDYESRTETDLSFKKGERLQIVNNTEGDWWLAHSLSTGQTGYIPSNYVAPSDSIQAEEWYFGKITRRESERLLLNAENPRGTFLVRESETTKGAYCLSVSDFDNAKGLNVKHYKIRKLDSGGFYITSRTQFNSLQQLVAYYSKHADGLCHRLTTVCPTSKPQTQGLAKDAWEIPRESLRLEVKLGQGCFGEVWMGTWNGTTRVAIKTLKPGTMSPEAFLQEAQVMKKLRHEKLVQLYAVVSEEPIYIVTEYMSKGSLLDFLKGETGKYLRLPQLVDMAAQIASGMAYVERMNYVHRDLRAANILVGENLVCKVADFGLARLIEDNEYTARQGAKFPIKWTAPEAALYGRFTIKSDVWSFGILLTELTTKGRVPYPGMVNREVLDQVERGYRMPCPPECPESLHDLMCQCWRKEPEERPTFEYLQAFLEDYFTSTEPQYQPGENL
# Chain of Protein Tyrosine Kinase, FES (P07332 whole entry): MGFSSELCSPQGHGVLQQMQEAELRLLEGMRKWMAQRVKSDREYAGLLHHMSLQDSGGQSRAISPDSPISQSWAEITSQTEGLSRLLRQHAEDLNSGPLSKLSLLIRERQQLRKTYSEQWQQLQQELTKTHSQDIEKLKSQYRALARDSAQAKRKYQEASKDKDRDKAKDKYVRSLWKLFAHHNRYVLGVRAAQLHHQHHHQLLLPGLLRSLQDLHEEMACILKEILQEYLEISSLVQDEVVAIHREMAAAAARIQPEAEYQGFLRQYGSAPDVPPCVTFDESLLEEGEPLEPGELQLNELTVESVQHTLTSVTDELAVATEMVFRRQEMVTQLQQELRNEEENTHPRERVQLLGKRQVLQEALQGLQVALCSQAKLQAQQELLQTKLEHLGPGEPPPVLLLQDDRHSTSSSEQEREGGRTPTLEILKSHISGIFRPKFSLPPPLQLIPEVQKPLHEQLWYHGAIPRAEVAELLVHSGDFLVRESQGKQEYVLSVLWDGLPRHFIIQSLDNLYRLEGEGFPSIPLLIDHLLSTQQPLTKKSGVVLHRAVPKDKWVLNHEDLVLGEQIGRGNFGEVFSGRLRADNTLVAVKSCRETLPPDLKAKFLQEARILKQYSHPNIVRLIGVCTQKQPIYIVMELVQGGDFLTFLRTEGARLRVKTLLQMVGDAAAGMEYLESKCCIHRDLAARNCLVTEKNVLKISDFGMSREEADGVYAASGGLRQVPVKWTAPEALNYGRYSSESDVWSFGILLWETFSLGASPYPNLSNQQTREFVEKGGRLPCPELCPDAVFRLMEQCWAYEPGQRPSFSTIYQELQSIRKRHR
# Chain of Protein Serine/Threonine Kinase, MAPK3 (ERK1) (P27361 whole entry): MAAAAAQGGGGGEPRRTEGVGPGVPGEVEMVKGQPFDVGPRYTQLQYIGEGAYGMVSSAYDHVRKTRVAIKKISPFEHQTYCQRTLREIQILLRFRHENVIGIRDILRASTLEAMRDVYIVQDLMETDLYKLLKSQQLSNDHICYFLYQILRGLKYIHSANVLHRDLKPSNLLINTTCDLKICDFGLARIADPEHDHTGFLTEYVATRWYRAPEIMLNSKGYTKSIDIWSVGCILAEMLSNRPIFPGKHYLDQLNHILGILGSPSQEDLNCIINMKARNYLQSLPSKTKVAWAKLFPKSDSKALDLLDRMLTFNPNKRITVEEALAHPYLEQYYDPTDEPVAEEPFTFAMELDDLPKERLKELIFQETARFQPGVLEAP
# T3 sequence (Q9Y233 whole entry, canonical isoform): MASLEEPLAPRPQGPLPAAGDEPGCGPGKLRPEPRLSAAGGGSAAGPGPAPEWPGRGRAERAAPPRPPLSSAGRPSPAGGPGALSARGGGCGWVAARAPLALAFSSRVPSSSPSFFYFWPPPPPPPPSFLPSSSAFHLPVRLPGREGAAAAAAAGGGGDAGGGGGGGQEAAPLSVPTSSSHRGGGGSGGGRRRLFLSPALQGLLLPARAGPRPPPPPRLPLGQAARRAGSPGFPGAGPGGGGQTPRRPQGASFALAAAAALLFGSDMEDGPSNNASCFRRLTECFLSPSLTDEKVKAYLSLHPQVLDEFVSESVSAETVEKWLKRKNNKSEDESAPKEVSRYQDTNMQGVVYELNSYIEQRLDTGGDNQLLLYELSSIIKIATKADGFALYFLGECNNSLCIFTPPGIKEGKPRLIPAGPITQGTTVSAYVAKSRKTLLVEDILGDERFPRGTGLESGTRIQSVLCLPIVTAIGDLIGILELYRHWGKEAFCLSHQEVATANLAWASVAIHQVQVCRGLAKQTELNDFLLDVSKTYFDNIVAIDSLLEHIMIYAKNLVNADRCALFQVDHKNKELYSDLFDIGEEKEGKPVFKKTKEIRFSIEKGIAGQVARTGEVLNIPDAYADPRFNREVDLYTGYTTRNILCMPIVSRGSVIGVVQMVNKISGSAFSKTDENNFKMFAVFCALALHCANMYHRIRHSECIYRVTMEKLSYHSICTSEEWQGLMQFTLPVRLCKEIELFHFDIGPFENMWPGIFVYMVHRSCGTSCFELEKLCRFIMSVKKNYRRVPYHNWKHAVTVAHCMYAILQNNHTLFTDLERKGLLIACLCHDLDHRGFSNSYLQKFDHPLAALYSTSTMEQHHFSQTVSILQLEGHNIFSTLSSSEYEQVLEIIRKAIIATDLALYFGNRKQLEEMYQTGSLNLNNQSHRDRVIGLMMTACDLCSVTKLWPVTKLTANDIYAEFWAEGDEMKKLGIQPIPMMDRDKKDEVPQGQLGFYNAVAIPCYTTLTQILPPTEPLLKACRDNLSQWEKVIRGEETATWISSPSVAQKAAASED
# T13 sequence (P04035 whole entry): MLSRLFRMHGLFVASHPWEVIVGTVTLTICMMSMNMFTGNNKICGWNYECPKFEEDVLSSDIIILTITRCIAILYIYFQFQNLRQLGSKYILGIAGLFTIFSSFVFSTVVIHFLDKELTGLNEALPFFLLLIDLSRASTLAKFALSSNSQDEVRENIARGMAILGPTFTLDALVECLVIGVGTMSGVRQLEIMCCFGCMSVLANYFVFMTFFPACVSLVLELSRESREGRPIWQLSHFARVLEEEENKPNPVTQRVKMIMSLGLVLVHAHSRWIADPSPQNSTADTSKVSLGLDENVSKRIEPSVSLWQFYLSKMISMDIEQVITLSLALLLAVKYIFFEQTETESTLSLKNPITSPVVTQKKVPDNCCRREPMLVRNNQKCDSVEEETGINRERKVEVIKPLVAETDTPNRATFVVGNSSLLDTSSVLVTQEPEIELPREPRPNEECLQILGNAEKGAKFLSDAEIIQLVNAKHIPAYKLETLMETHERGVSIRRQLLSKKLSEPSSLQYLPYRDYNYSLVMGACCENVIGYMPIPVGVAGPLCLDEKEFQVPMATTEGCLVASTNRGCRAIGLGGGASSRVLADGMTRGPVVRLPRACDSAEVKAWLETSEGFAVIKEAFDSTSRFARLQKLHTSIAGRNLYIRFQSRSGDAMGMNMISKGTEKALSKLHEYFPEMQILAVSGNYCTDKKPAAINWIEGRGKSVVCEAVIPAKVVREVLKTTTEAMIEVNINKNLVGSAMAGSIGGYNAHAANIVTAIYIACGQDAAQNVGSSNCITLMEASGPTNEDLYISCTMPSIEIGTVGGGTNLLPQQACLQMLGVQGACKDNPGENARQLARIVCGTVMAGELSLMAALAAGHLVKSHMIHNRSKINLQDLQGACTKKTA
# T7 sequence (P09237 whole entry): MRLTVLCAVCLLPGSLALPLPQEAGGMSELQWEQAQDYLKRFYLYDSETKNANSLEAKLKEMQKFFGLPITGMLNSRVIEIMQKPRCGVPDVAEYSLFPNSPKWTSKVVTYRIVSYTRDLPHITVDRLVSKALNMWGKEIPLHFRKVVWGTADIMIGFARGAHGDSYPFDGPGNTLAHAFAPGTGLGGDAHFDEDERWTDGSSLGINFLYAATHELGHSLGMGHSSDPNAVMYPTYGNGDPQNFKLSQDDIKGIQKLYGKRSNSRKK
# T4 sequence (P00742 whole entry): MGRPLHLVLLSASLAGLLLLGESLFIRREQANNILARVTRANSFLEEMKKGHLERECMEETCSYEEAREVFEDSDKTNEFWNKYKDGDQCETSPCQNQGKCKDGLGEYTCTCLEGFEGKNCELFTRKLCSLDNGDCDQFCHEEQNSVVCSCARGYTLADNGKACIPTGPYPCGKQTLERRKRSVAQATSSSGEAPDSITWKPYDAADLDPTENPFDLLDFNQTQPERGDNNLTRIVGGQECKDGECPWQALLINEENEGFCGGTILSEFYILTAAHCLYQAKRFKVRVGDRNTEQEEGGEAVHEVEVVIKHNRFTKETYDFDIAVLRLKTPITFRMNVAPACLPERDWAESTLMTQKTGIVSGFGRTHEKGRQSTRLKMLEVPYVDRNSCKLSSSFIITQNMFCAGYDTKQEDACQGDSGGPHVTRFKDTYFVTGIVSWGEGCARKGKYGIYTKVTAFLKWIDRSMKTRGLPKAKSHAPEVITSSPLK
compound,measurement,setting,value
C[C@]1(Nc2cnc(C(F)(F)F)cn2)CCC[C@@H]1NC(=O)c1ncccc1-n1nccn1 [CVN45502],inhibition at 10 µM,Carbonic Anhydrase II,-4%
same,inhibition at 10 µM,Phosphodiesterase PDE5,29%
same,inhibition at 10 µM,[1],35%
same,inhibition at 10 µM,"Peptidase, Factor Xa",-2%
same,inhibition at 10 µM,[2],-13%
same,inhibition at 10 µM,[3],-4%
same,inhibition at 10 µM,Cyclooxygenase COX-1,5%
same,inhibition at 10 µM,[4],6%
same,inhibition at 10 µM,[5],-22%
same,inhibition at 10 µM,5-Lipoxygenase,14%
same,inhibition at 10 µM,Monoamine Oxidase MAO-A,11%
same,inhibition at 10 µM,Monoamine Oxidase MAO-B,8%
same,inhibition at 10 µM,[6],-1%
same,inhibition at 10 µM,[7],12%
same,inhibition at 10 µM,[8],-7%
same,inhibition at 10 µM,[9],18%
same,inhibition at 10 µM,HMG-CoA Reductase,-4%
same,inhibition at 10 µM,Cyclooxygenase COX-2,-13%
same,inhibition at 10 µM,"Peptidase, Renin",10%
same,inhibition at 10 µM,[10],5%
same,inhibition at 10 µM,[11],8%
same,inhibition at 10 µM,[12],-4%
same,inhibition at 10 µM,[13],8%
same,inhibition at 10 µM,[14],-14%
same,inhibition at 10 µM,[15],0%
